Consider three compounds from patent publication US5776902A, “Boronophenyl analogs of phospholyrosines” (Trustees of Tufts University, priority 1995, dated 1998).

As usually defined, the IC50 is the concentration at which inhibition is half-maximal.

Assay [1] addresses T1, SH2 mediated interaction of middle T and fyn (Homo sapiens, UniProt P06241).
T1 construct: host or cells: middle T: Sf9 cells (baculovirus co-expression with src)
The assay is described as follows: Effect on Middle T/fyn interaction (GST-Fyn pull-down of 32P-labeled middle T, autoradiography). Conditions: GST-Fyn on glutathione-Sepharose beads, 32P-labeled polyoma Middle T, SDS gel autoradiography (FIG. 6); inhibitor 3.95×10^-4 M to 3.95×10^-5 M. Format: binding. As to the method:
Approximately 10 μg of a GST-Fyn fusion protein bound to 10 μl of glutathione-Sepharose beads were incubated with 90 μl of buffer (TEB, pH 9.0) and 10 μl of DMSO or DMSO containing an isomer (#1 or #2) of compound 36 (lanes 2 and 3 equal 3.95×10^-4 M; lane 4 equals 1.32×10^-4 M; lane 5 equals 3.95×10^-5 M). Lane 1 contains no inhibitor. The lanes labeled "MT 315" (lanes 6 and 7) are reaction mixutures as above, but having 20 μg of peptide (middle T residues EEYMPMED) instead of the benzodiazepine 36. The label "pY" indicates the peptide was phosphorylated, while unphosphoryalated peptide is designated as "-". The reaction mixtures were incubated for 1 hour, then 100 μL ^32 P-labeled Middle T (polyoma), prepared from baculovirus co-expression of middle T and src in Sf9 cells, were added to each reaction and incubated for 1 hour more at 4° C. The sepharose was washed with twice with PBS, and once with distilled water, boiled in SDS dissociation buffer, and run on a 7.5% acrylamide SDS gel. Labeled MT was visualized on the gel by autoradiography, and the inhibition of MT/fyn interaction determined.

A further assay concerns the target T2, lck-SH2 (Homo sapiens, UniProt P06239).
T2 construct: made in house; host or cells: E. coli
The assay is described as follows: IDEXX lck-SH2 binding assay (GST-SH2 beads, FITC-labeled peptide EPQYEEIPIYL). Conditions: inhibition of binding of FITC-labeled peptide to GST-lck SH2 beads (FIG. 7). The protocol:
In order to assess the inhibitory activity of the present peptidomimetics, the ability of the subject compounds to inhibit the interaction between a specific peptide and an SH2 domain was determined. Various SH2 domains were subcloned in frame with the glutathione-S-transferase affinity tag of the pGEX vector system (Pharmacia catalog no. PGEX-4T-3). The resulting pGEX-E2 construct encoded a glutathione-S-transferase (GST)/SH2 fusion protein (Smith et al. (1988) Gene 67:31-40). The pGEX construct was introduced into E. coli by transfromation, and the transformants grown in liquid media (LB) in the presence of IPTG. Purification of GST/E2 fusion protein was by standard protocols (Current Protocols in Molecular Biology, eds. Ausubel et al. (NY:John Wiley & Sons, 1991); Pharmacia instruction booklet (for catalog no. 27-4570)) using a glutathione-sepharose column (Pharmacia catalog no. 27-4570). Briefly, the cells were pelleted and resuspended in buffer A (50 mM TRIS (pH7.5), 2 mM EDTA, 250 mM NaCl, 5% glycerol (V/V), 1% Tween (V/V), 1% Triton X 100 (V/V)), to which 2 mM PMSF and 15 mM 2-mercaptoethanol were added. […]

T1 sequence (P06241 whole entry, species assumed): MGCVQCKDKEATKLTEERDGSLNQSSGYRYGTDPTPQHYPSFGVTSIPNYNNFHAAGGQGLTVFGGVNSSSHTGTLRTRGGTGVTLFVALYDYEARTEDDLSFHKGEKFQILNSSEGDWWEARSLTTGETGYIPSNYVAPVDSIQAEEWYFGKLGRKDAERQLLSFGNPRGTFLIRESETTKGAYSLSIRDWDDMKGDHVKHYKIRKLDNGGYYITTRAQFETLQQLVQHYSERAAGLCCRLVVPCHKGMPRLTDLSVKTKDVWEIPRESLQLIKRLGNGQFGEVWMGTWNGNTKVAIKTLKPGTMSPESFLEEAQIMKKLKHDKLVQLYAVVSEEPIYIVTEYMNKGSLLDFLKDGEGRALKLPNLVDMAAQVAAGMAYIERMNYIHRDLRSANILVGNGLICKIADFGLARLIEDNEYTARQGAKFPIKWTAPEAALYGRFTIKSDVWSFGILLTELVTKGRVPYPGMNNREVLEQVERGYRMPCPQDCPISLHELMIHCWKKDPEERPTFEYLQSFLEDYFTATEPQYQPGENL
T2 sequence (P06239 127-224 limits assumed): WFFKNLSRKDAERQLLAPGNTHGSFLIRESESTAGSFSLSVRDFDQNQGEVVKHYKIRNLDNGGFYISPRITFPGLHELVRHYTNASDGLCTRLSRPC

For `CC[C@H](C)[C@H](NC(=O)CN1C(=O)C(NC(=O)[C@H](Cc2ccc(OP(=O)(O)O)cc2)NC(C)=O)N=C(c2ccccc2)c2ccccc21)C(=O)OC` (single isomer, unassigned; isomer #2) [isomer #2], the “inhibition of MT/fyn interaction” value in assay [1] is listed as “more potent inhibitor”.

As to `CC[C@H](C)[C@H](NC(=O)CN1C(=O)C(NC(=O)[C@H](Cc2ccc(OP(=O)(O)O)cc2)NC(=O)OCC2c3ccccc3-c3ccccc32)N=C(c2ccccc2)c2ccccc21)C(=O)OC` (stereo partly drawn) [FMOC-derivative, 1,3-Dihydro-1-[(methoxy-L-isoleucyl)carbonylmethyl)-5-phenyl-3(R,S)-{[(N-fluorenylmethoxycarbonyl)phosphono-L-tyrosyl]amino}-2H-1,4-benzodiazepin-2-one], the IC50 at lck-SH2 stood at 48.2 µM.

As to `CC[C@H](C)[C@H](NC(=O)CN1C(=O)C(NC(=O)[C@H](Cc2ccc(OP(=O)(O)O)cc2)NC(C)=O)N=C(c2ccccc2)c2ccccc21)C(=O)OC` (stereo partly shown) [compound 36], in assay [1], the “inhibition of MT/fyn interaction” value is recorded as “both isomers of 36 displayed inhibitory action”. This compound also displayed an IC50 at lck-SH2 of 271 µM.
